Laboratory results published in patent publication US7514438B2, “Melanin concentrating hormone receptor antagonist” (Amgen, Inc., priority 2003, dated 2009).
Read-outs that look alike come from different tables or passages of the source.

What was measured:
[1] = target: T1, rat MCH 1 receptor (rMCH1R) (Rattus norvegicus, UniProt P97639); test: 125I-MCH ligand binding assay, rMCH; details: HEK 293 membranes, 0.2 nM 125I native-MCH, read-out: IC50 in the rMCH binding assay
T1 construct: expressed in transfected cells; host or cells: HEK 293 (membranes)
Experimental: (§1) Human embryonic kidney cells (293 total) expressing either human, rat, or mouse MCH receptor were harvested from 150 mm culture dishes using PBS. Spinning at 1500 rpm for 2 minutes initially pelleted cells. The resulting pellet was then homogenized in 15 mL ice cold sucrose buffer (25 mM HEPES, 0.3 M sucrose, pH 7.4) with a motorized, glass fitted, Teflon® homogenizer. The homogenate was centrifuged at 48,000×g at 4° C. for 10 minutes, resuspended in 15 mL assay buffer (25 mM HEPES, 10 mM mgCl2, 0.2% BSA, 0.1 mg/mL STI, 0.1 mg/mL Pefabloc®, 1 μM Phosphoramidon, pH 7.4) with a Tissue-Tearor® (Biospec Products) and centrifuged again at 48,000×g for 10 minutes. The pellet was homogenized for a third time in 15 mL assay buffer using the Tissue-Tearor® and again centrifuged at 48,000×g for 10 minutes. The resulting pellet was resuspended in assay buffer at a wet weight concentration of 10-20 mg/mL.
(§2) Binding assays were determined as described below using mouse, rat or human MCH 1 receptors (mMCH1R, rMCH1R, and hMCH1R, respectively) expressed in HEK 293; IC50 values were calculated.
(§3) Binding assays were performed in 96-well U-bottom plates. Membranes (100 μg tissue) were incubated at 30° C. for 90 minutes in assay buffer with various peptides in the presence of 0.2 nM ^125I native-MCH (Perkin-Elmer Life Sciences, Boston, Mass.) in 100 μL total volume. Non-specific binding was assessed in the presence of 1 μM cold native-MCH. The reaction was terminated by rapid filtration through Unfilter-96 GF/C glass fiber filter plates (FilterMate® 196 Harvester, Packard Instrument Co., Meriden, Conn.) pre-soaked in PBS/0.5% BSA, followed by three washes with 300 μL ice-cold water. Bound radioactivity was determined using a TopCount® microplate scintillation and luminescence counter (Packard Instrument Co., Meriden, Conn.). Nonlinear regression analyses of drug concentration curves were performed using GraphPad Prism® (GraphPad Software, Inc., San Diego, Calif.).

[2] = target: T2, human MCH 1 receptor (hMCH1R) (Homo sapiens, UniProt Q99705); test: 125I-MCH ligand binding assay, hMCH; details: HEK 293 membranes, 0.2 nM 125I native-MCH; 100 μM or less list; read-out: IC50 in the hMCH binding assay
T2 construct: expressed in transfected cells; host or cells: HEK 293 (membranes)
Experimental: as §1, §2, §3

T1 sequence (P97639 whole entry): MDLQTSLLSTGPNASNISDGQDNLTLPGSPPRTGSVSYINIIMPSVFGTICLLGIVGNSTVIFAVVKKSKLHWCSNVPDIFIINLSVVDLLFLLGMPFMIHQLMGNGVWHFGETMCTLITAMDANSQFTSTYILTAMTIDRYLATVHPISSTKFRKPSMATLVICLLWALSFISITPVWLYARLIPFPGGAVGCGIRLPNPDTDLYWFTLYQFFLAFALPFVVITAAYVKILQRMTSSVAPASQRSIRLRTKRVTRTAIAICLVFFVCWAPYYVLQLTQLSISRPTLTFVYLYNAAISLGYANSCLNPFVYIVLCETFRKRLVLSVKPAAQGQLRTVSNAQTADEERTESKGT
T2 sequence (Q99705 whole entry): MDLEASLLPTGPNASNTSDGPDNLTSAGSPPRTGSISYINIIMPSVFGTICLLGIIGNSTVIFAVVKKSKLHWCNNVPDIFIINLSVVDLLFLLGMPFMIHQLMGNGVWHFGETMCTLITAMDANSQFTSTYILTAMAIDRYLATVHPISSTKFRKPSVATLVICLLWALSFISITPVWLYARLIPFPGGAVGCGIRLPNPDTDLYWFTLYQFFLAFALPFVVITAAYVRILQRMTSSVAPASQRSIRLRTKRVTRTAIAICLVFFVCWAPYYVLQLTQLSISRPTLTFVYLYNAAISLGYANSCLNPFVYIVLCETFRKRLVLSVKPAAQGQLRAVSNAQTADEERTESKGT

Row | Structure (SMILES) | IC50 ([1]; 100 μM or less list) | IC50 [2] | IC50 ([1]; 100 nM or less list)
1 | Cc1cccc(C)c1-n1nnnc1[C@H](c1cccc(C(F)(F)F)c1)N1CCN(Cc2ccc3c(c2)OCO3)CC1 (racemic) [Compound 156, 1-benzo[1,3]dioxol-5-ylmethyl-4-[[1-(2,6-dimethylphenyl)-1H-tetrazol-5-yl]-(3-trifluoromethylphenyl)methyl]piperazine] | ≤ 100 µM |  | 
2 | Cc1cccc(C)c1-n1nnnc1[C@H](c1ccccn1)N1CCN(C/C=C/c2ccccc2)CC1 (racemic) [Compound 75, 1-{[1-(2,6-dimethylphenyl)-1H-tetrazol-5-yl]pyridin-2-ylmethyl}-4-(3-phenylallyl)piperazine] | ≤ 100 µM |  | 
3 | COc1ccccc1[C@@H](c1nnnn1-c1c(C)cccc1C)N1CCN(C/C=C/c2ccccc2)CC1 (racemic) [Compound 67, 1-[[1-(2,6-dimethylphenyl)-1H-tetrazol-5-yl]-(2-methoxyphenyl)methyl]-4-(3-phenylallyl)piperazine] |  | ≤ 100 µM | 
4 | CCc1ccc([C@@H](c2nnnn2-c2c(C)cccc2C)N2CCN(C/C=C/c3ccccc3)CC2)cc1 (racemic) [Compound 127, 1-[[1-(2,6-dimethylphenyl)-1H-tetrazol-5-yl]-(4-ethylphenyl)methyl]-4-(3-phenylallyl)piperazine] | ≤ 100 µM |  | 
5 | C(=C\c1ccccc1)/CN1CCN([C@@H](c2ccccc2)c2nnnn2CCC(c2ccccc2)c2ccccc2)CC1 (racemic) [Compound 27, 1-{[1-(3,3-diphenylpropyl)-1H-tetrazol-5-yl]phenylmethyl}-4-(3-phenylallyl)piperazine] | ≤ 100 µM |  | 
6 | Cc1cccc(C)c1-n1nnnc1[C@H](c1cccc(Cl)c1)N1CCN(C/C=C/c2ccccc2)CC1 (racemic) [Compound 140, 1-{(3-chlorophenyl)-[1-(2,6-dimethylphenyl)-1H-tetrazol-5-yl]methyl}-4-(3-phenylallyl)piperazine] | ≤ 100 µM |  | ≤ 0.1 µM
7 | CSc1ccc([C@@H](c2nnnn2-c2c(C)cccc2C)N2CCN(C/C=C/c3ccccc3)CC2)cc1 (racemic) [Compound 126, 1-[[1-(2,6-dimethylphenyl)-1H-tetrazol-5-yl]-(4-methylsulfanylphenyl)methyl]-4-(3-phenylallyl)piperazine] | ≤ 100 µM |  | 
8 | COc1ccc([C@@H](c2nnnn2-c2c(C)cccc2C)N2CCN(C/C=C/c3ccccc3)CC2)cc1OC (racemic) [Compound 128, 1-{(3,4-dimethoxyphenyl)-[1-(2,6-dimethylphenyl)-1H-tetrazol-5-yl]methyl}-4-(3-phenylallyl)piperazine] | ≤ 100 µM |  | 
9 | COc1cc([C@@H](c2nnnn2-c2c(C)cccc2C)N2CCN(C/C=C/c3ccccc3)CC2)ccc1OCc1ccccc1 (racemic) [Compound 129, 1-{(4-benzyloxy-3-methoxyphenyl)-[1-(2,6-dimethylphenyl)-1H-tetrazol-5-yl]methyl}-4-(3-phenylallyl)piperazine] | ≤ 100 µM |  | ≤ 0.1 µM
10 | Cc1cccc(C)c1-n1nnnc1C(c1cccc(C(F)(F)F)c1)N1CCN(CCCc2ccccc2)CC1 (racemic) [Compound 154, 1-[[1-(2,6-dimethylphenyl)-1H-tetrazol-5-yl]-(3-trifluoromethylphenyl)methyl]-4-(3-phenylpropyl)piperazine] | ≤ 100 µM |  | 
11 | COc1ccc([C@@H](c2nnnn2-c2c(C)cccc2C)N2CCN(C/C=C/c3ccccc3)CC2)cc1 (racemic) [Compound 122, 1-[[1-(2,6-dimethylphenyl)-1H-tetrazol-5-yl]-(4-methoxyphenyl)methyl]-4-(3-phenylallyl)piperazine] | ≤ 100 µM |  | 
12 | C(=C\c1ccccc1)/CN1CCN([C@@H](c2ccccc2)c2nnnn2C2CCN(Cc3ccccc3)CC2)CC1 (racemic) [Compound 28, 1-{[1-(1-benzylpiperidin-4-yl)-1H-tetrazol-5-yl]phenylmethyl}-4-(3-phenylallyl)piperazine] | ≤ 100 µM |  | 
13 | Cc1cccc(C)c1-n1nnnc1[C@H](c1cc(Cl)cc(Cl)c1)N1CCN(C/C=C/c2ccccc2)CC1 (racemic) [Compound 137, 1-{(3,5-dichlorophenyl)-[1-(2,6-dimethylphenyl)-1H-tetrazol-5-yl]methyl}-4-(3-phenylallyl)piperazine] | ≤ 100 µM |  | ≤ 0.1 µM
14 | Cc1cccc(C)c1-n1nnnc1[C@H](c1ccc(Cl)cc1)N1CCN(C/C=C/c2ccccc2)CC1 [Compound 118, 1-{(4-chiorophenyl)-[1-(2,6-dimethylphenyl)-1H-tetrazol-5-yl]methyl}-4-(3-phenylallyl)piperazine] | ≤ 100 µM |  | 
15 | Cc1ccc([C@@H](c2nnnn2-c2c(C)cccc2C)N2CCN(C/C=C/c3ccccc3)CC2)cc1C (racemic) [Compound 123, 1-{(3,4-dimethylphenyl)-[1-(2,6-dimethylphenyl)-1H-tetrazol-5-yl]methyl}-4-(3-phenylallyl)piperazine] | ≤ 100 µM |  | 
16 | CC(=O)Nc1ccc([C@@H](c2nnnn2-c2c(C)cccc2C)N2CCN(C/C=C/c3ccccc3)CC2)cc1 (racemic) [Compound 131, n-(4-{[1-(2,6-dimethylphenyl)-1H-tetrazol-5-yl]-[4-(3-phenylallyl)piperazin-1-yl]methyl}phenyl)acetamide] | ≤ 100 µM |  | 
17 | CC(C)(C)OC(=O)Cn1nnnc1[C@H](c1ccccc1)N1CCN(C/C=C/c2ccccc2)CC1 (racemic) [Compound 24, (5-{phenyl-[4-(3-phenylallyl)piperazin-1-yl]methyl}tetrazol-1-yl)acetic acid tert-butyl ester] | ≤ 100 µM |  | 
18 | Cc1cccc(C)c1-n1nnnc1C1(N2CCN(C/C=C/c3ccccc3)CC2)CCN(C)CC1 [Compound 99, 1-{4-[1-(2,6-dimethylphenyl)-1H-tetrazol-5-yl]-1-methylpiperidin-4-yl}-4-(3-phenylallyl)piperazine] | ≤ 100 µM |  | 
19 | Cc1cccc(C)c1-n1nnnc1[C@H](c1cccc(Br)c1)N1CCN(C/C=C/c2ccccc2)CC1 (racemic) [Compound 139, 1-{(3-bromophenyl)-[1-(2,6-dimethylphenyl)-1H-tetrazol-5-yl]methyl}-4-(3-phenylallyl)piperazine] | ≤ 100 µM |  | ≤ 0.1 µM
20 | Cc1cccc(C)c1-n1nnnc1[C@H](c1ccc(C(C)C)cc1)N1CCN(C/C=C/c2ccccc2)CC1 (racemic) [Compound 125, 1-[[1-(2,6-dimethylphenyl)-1H-tetrazol-5-yl]-(4-isopropylphenyl)methyl}-4-(3-phenylallyl)piperazine] | ≤ 100 µM |  | 
21 | Cc1cccc(C)c1-n1nnnc1[C@H](c1ccc(CC(C)C)cc1)N1CCN(C/C=C/c2ccccc2)CC1 (racemic) [Compound 130, 1-[[1-(2,6-dimethylphenyl)-1H-tetrazol-5-yl]-(4-isobutylphenyl)methyl]-4-(3-phenylallyl)piperazine] | ≤ 100 µM |  | 
22 | COc1cc(/C=C/CN2CCN([C@@H](c3cccc(C(F)(F)F)c3)c3nnnn3-c3c(C)cccc3C)CC2)ccc1O (racemic) [Compound 163, 4-(3-{4-[[1-(2,6-dimethylphenyl)-1H-tetrazol-5-yl]-(3-trifluoromethylphenyl)methyl]piperazin-1-yl}propenyl)-2-methoxyphenol] | ≤ 100 µM |  | ≤ 0.1 µM
23 | CCN([C@@H]1CCN(Cc2ccccc2)C1)[C@@H](c1cccc(C(F)(F)F)c1)c1nnnn1-c1c(C)cccc1C (racemic) [Compound 162, (1-benzylpyrrolidin-3-yl)-[[1-(2,6-dimethylphenyl)-1H-tetrazol-5-yl]-(3-trifluoromethylphenyl)methyl]ethylamine] | ≤ 100 µM |  | 
24 | Cc1cccc(C)c1-n1nnnc1[C@H](c1ccc(F)c(F)c1)N1CCN(C/C=C/c2ccccc2)CC1 (racemic) [Compound 124, 1-{(3,4-difluoraphenyl)-[1-(2,6-dimethylphenyl)-1H-tetrazol-5-yl]methyl}-4-(3-phenylallyl)piperazine] | ≤ 100 µM |  | 
25 | CCOc1ccc([C@@H](c2nnnn2-c2c(C)cccc2C)N2CCN(C/C=C/c3ccccc3)CC2)cc1 (racemic) [Compound 136, 1-[[1-(2,6-dimethylphenyl)-1H-tetrazol-5-yl]-(4-ethoxyphenyl)methyl]-4-(3-phenylallyl)piperazine] | ≤ 100 µM |  | ≤ 0.1 µM
26 | Cc1cccc(C)c1-n1nnnc1[C@H](c1cccc([N+](=O)[O-])c1)N1CCN(C/C=C/c2ccccc2)CC1 (racemic) [Compound 138, 1-[[1-(2,6-dimethylphenyl)-1H-tetrazol-5-yl]-(3-nitrophenyl)methyl]-4-(3-phenylallyl)piperazine] | ≤ 100 µM |  | ≤ 0.1 µM
